The source of these data is US12460262B2, “Methods of detecting, preventing, reversing, and treating neurological diseases” (Washington University, priority 2018, dated 2025).

Assay [1] deals with ISF Aβ levels. Set-up: species or system mice. The settings on record: mouse, in vivo.
Procedure: To investigate the effect of NAGLU on Aβ generation and clearance, in vivo microdialysis is used to dynamically assess ISF Aβ metabolism in the hippocampus of 5XFAD/NAGLU (+14 5XFAD/NAGLU (−/−) mice and 5XFAD littermates injected with AVV2/9 or PBS at 3-4 months of age. To assess ISF Aβ levels over time in the hippocampus of awake, freely moving mice in vivo microdialysis is performed as previously described. Briefly, under isoflurane anesthesia, a guide cannula is stereotaxically implanted above the hippocampus (3.1 mm behind bregma, 2.5 mm lateral to midline, and 1.2 mm below dura at a 12° angle). A microdialysis probe is inserted through the guide cannula into the brain. Artificial CSF is used as microdialysis perfusion buffer. Microdialysis samples are collected every 60-90 min and are assessed for Aβ40 or Aβ42 by ELISAs. The mean concentration of Aβ over 6 hr is defined as basal concentration of ISF Aβ. For each animal, all Aβ concentrations are normalized to the basal Aβ concentration for that mouse. After basal concentration is determined mice are administered a blood-brain permeable γ-secretase inhibitor (LY411575, 3 mg/kg subcutaneously) to rapidly block the production of Aβ. […] The half-life of ISF Aβ is calculated on the basis of the slope of the semi-log plot of % change in Aβ versus time. […]
In assay [2] the test system is cultured fibroblasts of MPS patients. The settings on record: cited from earlier work.
Assay [3] relates to NAGLU-deficient mice. The conditions noted are these: cited from earlier work.
For assay [4], the system named is Aβ secretion. The conditions noted are these: in vitro exposure; cited from earlier work.

On to `CCN(CC)CCCC(C)Nc1ccnc2cc(Cl)ccc12` (centres unmarked) [Chloroquine], for which, in assay [1], the “change of ISF levels of Aβ” value is “did not change”.

As to `O=c1c(-c2ccc(O)cc2)coc2cc(O)cc(O)c12` [Genistein, 4′,5,7-trihydroxyisoflavone or 5,7-dihydroxy-3-(4-hydroxyphenyl)-4H-1-benzopyran-4-one], in assay [2], the “synthesis of glycosaminoglycans (GAGs)” value is reported as “inhibits synthesis of glycosaminoglycans (GAGs)”. The lysosomal storage material result in assay [3] was “reduces lysosomal storage material”.

Turning to `Cl.N` [ammonium chloride], the Aβ secretion entry in assay [4] was “reduces Aβ secretion”.

As for `CO/C1=C\C(C)=C\[C@@H](C)[C@@H](O)[C@@H](C)C/C(C)=C/C=C/[C@H](OC)[C@@H]([C@@H](C)[C@@H](O)[C@H](C)[C@@]2(O)C[C@@H](O)[C@H](C)[C@@H](C(C)C)O2)OC1=O` [bafilomycin A1], in assay [4], the Aβ secretion entry is listed as “reduces Aβ secretion”.
